Experimental data taken from patent US20120214822A1 (ASTRAZENECA AB, priority 2007, published 2012).

Molecular target: human active recombinant p38α-6His tagged (Homo sapiens, UniProt Q16539)
Assay: P38 Alpha Enzyme Assay (AlphaScreen, biotinylated-ATF2 substrate);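 further: 0.5 nM final p38α, reaction started with ATP and run 45 min at 37 °C, phospho-ATF2 read by antibody-based AlphaScreen, background wells quenched with EDTA before ATP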
Assay type: biochemical
Conditions: p38 alpha enzyme inhibition; means of replicate determinations; 4 h pre-incubation at 37° C.; SD of assay 0.2-0.3 log units

Chain of human active recombinant p38α-6His tagged (Q16539 whole entry): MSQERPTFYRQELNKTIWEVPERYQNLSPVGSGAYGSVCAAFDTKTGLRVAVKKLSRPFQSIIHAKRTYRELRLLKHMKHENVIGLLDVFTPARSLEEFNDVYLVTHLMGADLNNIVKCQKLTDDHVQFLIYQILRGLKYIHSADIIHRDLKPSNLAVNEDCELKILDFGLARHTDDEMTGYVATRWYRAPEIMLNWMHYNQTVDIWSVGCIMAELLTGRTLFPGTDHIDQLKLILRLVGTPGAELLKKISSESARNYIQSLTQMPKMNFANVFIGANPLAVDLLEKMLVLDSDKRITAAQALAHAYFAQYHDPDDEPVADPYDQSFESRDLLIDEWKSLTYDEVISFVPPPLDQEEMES

Row | Compound | pIC50 | IC50 [nM]
1 | Cc1ccc(C(=O)NC2CC2)cc1-n1ccnc(NCc2ccc3c(c2)OCO3)c1=O [Example 32, 3-[3-[(1,3-Benzodioxol-5-ylmethyl)amino]-2-oxo-1(2H)-pyrazinyl]-N-cyclopropyl-4-methyl-benzamide] | 6.8 | –
2 | COC[C@@H]1CCCN1C[C@H](C)[C@@H](Nc1nccn(-c2cc(C(=O)NC3CC3)ccc2C)c1=O)c1ccccc1 [Example 149, N-Cyclopropyl-3-[3-[[(1R,2S)-3-[(2S)-2-(methoxymethyl)-1-pyrrolidinyl]-2-methyl-1-phenylpropyl]amino]-2-oxo-1(2H)-pyrazinyl]-4-methyl-benzamide] | 8.9 | –
3 | Cc1ccc(C(=O)NC2CC2)cc1-n1ccnc(N2CCNC(c3ccccc3)C2)c1=O (stereo not shown) [Example 53, N-Cyclopropyl-4-methyl-3-[2-oxo-3-(3-phenyl-1-piperazinyl)-1(2H)-pyrazinyl]-benzamide] | 7.4 | –
4 | CCN(C)CCOc1ccccc1C1(Nc2nccn(-c3cc(C(=O)NC4CC4)ccc3C)c2=O)CC1 [Example 241, N-Cyclopropyl-3-[3-[[1-[2-[2-(ethylmethylamino)ethoxy]phenyl]cyclopropyl]amino]-2-oxo-1(2H)-pyrazinyl]-4-methyl-benzamide] | 9.5 | –
5 | Cc1ccc(C(=O)NC2CC2)cc1-n1ccnc(NCC(c2ccccc2)N(C)C)c1=O (stereo not shown) [Example 61, N-Cyclopropyl-3-[3-[[2-(dimethylamino)-2-phenylethyl]amino]-2-oxo-1(2H)-pyrazinyl]-4-methyl-benzamide] | 6.3 | –
6 | CONC(=O)c1ccc(C)c(-n2ccnc(N3CCNC(c4ccccc4)C3)c2=O)c1 (stereo not shown) [Example 126, N-Methoxy-4-methyl-3-[2-oxo-3-(3-phenyl-1-piperazinyl)-1(2H)-pyrazinyl]-benzamide] | 8.1 | –
7 | Cc1ccc(C(=O)NC2CC2)cc1-n1ccnc(NCc2cccc(Cl)c2)c1=O [Example 130, 3-[3-[[(3-Chlorophenyl)methyl]amino]-2-oxo-1(2H)-pyrazinyl]-N-cyclopropyl-4-methyl-benzamide] | 8.2 | –
8 | Cc1ccc(C(=O)NC2CC2)cc1-n1ccnc(NCC2(c3ccccc3)CCN(C)CC2)c1=O [Example 35, N-Cyclopropyl-4-methyl-3-[3-[[(1-methyl-4-phenyl-4-piperidinyl)methyl]amino]-2-oxo-1(2H)-pyrazinyl]-benzamide] | – | 251
9 | Cc1ccc(C(=O)NC2CC2)cc1-n1ccnc(NC(C)(C)c2ccccc2OCCN2CCNCC2)c1=O [Example 199, N-Cyclopropyl-4-methyl-3-[3-[[1-methyl-1-[2-[2-(1-piperazinyl)ethoxy]phenyl]ethyl]amino]-2-oxo-1(2H)-pyrazinyl]-benzamide] | 9.1 | –
10 | Cc1ccc(C(=O)NC2CC2)cc1-n1ccnc(N[C@@H](c2ccccc2)[C@@H](C)CN2CCC3(CC2)OCCO3)c1=O [Example 179, N-Cyclopropyl-3-[3-[[(1R,2S)-3-(1,4-dioxa-8-azaspiro[4.5]dec-8-yl)-2-methyl-1-sphenylpropyl]amino]-2-oxo-1(2H)-pyrazinyl]-4-methyl-benzamide] | 8.9 | –
11 | Cc1ccc(C(=O)NC2CC2)cc1-n1ccnc(N[C@H](CC(=O)NC2CC2)c2ccccc2)c1=O [Example 89] | 7.6 | –
12 | CCNCCOc1ccc(F)cc1C1(Nc2nccn(-c3cc(C(=O)NC4CC4)ccc3C)c2=O)CC1 [Example 280, N-Cyclopropyl-3-[3-[[1-[2-[2-(ethylamino)ethoxy]-5-fluorophenyl]cyclopropyl]amino]-2-oxo-1(2H)-pyrazinyl]-4-methyl-benzamide] | 10.1 | –
13 | CCNCCOc1ccccc1C(C)(C)Nc1nccn(-c2cc(C(=O)NC3CC3)cc(F)c2C)c1=O [Example 252, N-Cyclopropyl-3-[3-[[1-[2-[2-(ethylamino)ethoxy]phenyl]-1-methylethyl]amino]-2-oxo-1(2H)-pyrazinyl]-5-fluoro-4-methyl-benzamide] | 10.1 | –
14 | Cc1ccc(C(=O)NC2CC2)cc1-n1ccnc(NC(C)(C)c2ccccc2OCCCCNCC(F)(F)F)c1=O [Example 205, N-Cyclopropyl-4-methyl-3-[3-[[1-methyl-1-[2-[4-[(2,2,2-trifluoroethyl)amino]butoxy]phenyl]ethyl]amino]-2-oxo-1(2H)-pyrazinyl]-benzamide] | 9 | –
15 | Cc1ccc(C(=O)NC2CC2)cc1-n1ccnc(NC(C)(C)c2ccccc2OC2CNC2)c1=O [Example 215, N-Cyclopropyl-4-methyl-3-[3-[[1-[2-(3-azetidinyloxy)phenyl]-1-methylethyl]amino]-2-oxo-1(2H)-pyrazinyl]-benzamide] | 9.6 | –
16 | CNCCOc1ccccc1C(C)(C)Nc1nccn(-c2cc(C(N)=O)ccc2C)c1=O [Example 229, 4-Methyl-3-[3-[[1-methyl-1-[2-[2-(methylamino)ethoxy]phenyl]ethyl]amino]-2-oxo-1(2H)-pyrazinyl]benzamide] | 8.6 | –
17 | Cc1cc(C)cc(CNc2nccn(-c3cc(C(=O)NC4CC4)ccc3C)c2=O)c1 [Example 95, N-Cyclopropyl-3-[3-[[(3,5-dimethylphenyl)methyl]amino]-2-oxo-1(2H)-pyrazinyl]-4-methyl-benzamide] | 7.7 | –

Row | Compound | pIC50 | IC50 [nM]
18 | CNC[C@@H](O)COc1ccccc1C(C)(C)Nc1nccn(-c2cc(C(=O)NC3CC3)cc(F)c2C)c1=O [Example 307, N-Cyclopropyl-3-fluoro-5-[3-{[1-(2-{[(2R)-2-hydroxy-3-(methylamino)propyl]oxy}phenyl)-1-methylethyl]amino}-2-oxopyrazin-1(2H)-yl]-4-methylbenzamide] | 10.3 | –
19 | CNCCOc1ccccc1C1(Nc2nccn(-c3cc(C(=O)NC4CC4)ccc3C)c2=O)CCC1 [Example 268, N-Cyclopropyl-4-methyl-3-[3-[[1-[2-[2-(methylamino)ethoxy]phenyl]cyclobutyl]amino]-2-oxo-1(2H)-pyrazinyl]-benzamide] | 10 | –
20 | Cc1ccc(C(=O)NC2CC2)cc1-n1ccnc(NCc2ccccn2)c1=O [Example 23, N-Cyclopropyl-4-methyl-3-[2-oxo-3-[(2-pyridinylmethyl)amino]-1(2H)-pyrazinyl]-benzamide] | 6.9 | –
21 | Cc1ccc(C(=O)NC2CC2)cc1-n1ccnc(NCCN(C)C)c1=O [Example 5, N-Cyclopropyl-3-[3-[[2-(dimethylamino)ethyl]amino]-2-oxo-1(2H)-pyrazinyl]-4-methyl-benzamide] | 5.9 | –
22 | Cc1ccccc1[C@H](Nc1nccn(-c2cc(C(=O)NC3CC3)ccc2C)c1=O)[C@@H](C)CO [Example 272, N-Cyclopropyl-3-[3-[[(1R,2R)-3-hydroxy-1-(2-methylphenyl)-2-methylpropyl]amino]-2-oxo-1(2H)-pyrazinyl]-4-methyl-benzamide] | 8.5 | –
23 | CCNCCOc1c(F)cccc1C1(Nc2nccn(-c3cc(C(=O)NC4CC4)ccc3C)c2=O)CC1 [Example 286, N-Cyclopropyl-3-{3-[(1-{2-[2-(ethylamino)ethoxy]-3-fluorophenyl}cyclopropyl)amino]-2-oxopyrazin-1(2H)-yl}-4-methylbenzamide] | 9.3 | –
24 | Cc1ccc(C(=O)NC2CC2)cc1-n1ccnc(NC(C)(C)Cc2ccc(F)cc2)c1=O [Example 62, N-Cyclopropyl-3-[3-[[2-(4-fluorophenyl)-1,1-dimethylethyl]amino]-2-oxo-1(2H)-pyrazinyl]-4-methyl-benzamide] | 7 | –
25 | Cc1ccc(C(=O)NC2CC2)cc1-n1ccnc(NC2(c3ccccc3OCCN)CC2)c1=O [Example 251, 3-[3-[[1-[2-(2-aminoethoxy)phenyl]cyclopropyl]amino]-2-oxo-1(2H)-pyrazinyl]-N-cyclopropyl-4-methyl-benzamide] | 10.1 | –
26 | Cc1ccc(C(=O)NC2CC2)cc1-n1cc(Cl)nc(NCc2ccccc2)c1=O [Example 109, 3-[5-Chloro-2-oxo-3-[(phenylmethyl)amino]-1(2H)-pyrazinyl]-N-cyclopropyl-4-methyl-benzamide] | 7.2 | –
27 | Cc1ccc(C(=O)NC2CC2)cc1-n1ccnc(NC2(c3cccc(F)c3OCCNCCO)CC2)c1=O [Example 285, N-Cyclopropyl-3-[3-{[1-(3-fluoro-2-{2-[(2-hydroxyethyl)amino]ethoxy}phenyl)cyclopropyl]amino}-2-oxopyrazin-1(2H)-yl]-4-methylbenzamide] | 9.6 | –
28 | Cc1c(F)cc(C(=O)NC2CC2)cc1-n1ccnc(NC2(c3ccccc3OCCN)CC2)c1=O [Example 314, 3-[3-({1-[2-(2-Aminoethoxy)phenyl]cyclopropyl}amino)-2-oxopyrazin-1(2H)-yl]-N-cyclopropyl-5-fluoro-4-methylbenzamide] | 10.4 | –
29 | CCNCCOc1ccccc1C1(Nc2nccn(-c3cc(C(=O)NC4CC4)c(F)cc3C)c2=O)CC1 [Example 318, N-cyclopropyl-5-{3-[(1-{2-[2-(ethylamino)ethoxy]phenyl}cyclopropyl)amino]-2-oxopyrazin-1(2H)-yl}-2-fluoro-4-methylbenzamide] | 8.2 | –
30 | CCNC(=O)c1ccc(C)c(-n2ccnc(NCc3ccccc3)c2=O)c1 [Example 115, N-Ethyl-4-methyl-3-[2-oxo-3-[(phenylmethyl)amino]-1(2H)-pyrazinyl]-benzamide] | 6.9 | –
31 | CNCCCOc1ccccc1[C@@H]1CCCN1c1nccn(-c2cc(C(=O)NC3CC3)ccc2C)c1=O (single isomer, unassigned) [Example 326] | – | 25.1
32 | CCNC[C@H](O)COc1ccccc1C(C)(C)Nc1nccn(-c2cc(C(=O)NC3CC3)cc(F)c2C)c1=O [Example 309, N-Cyclopropyl-3-[3-{[1-(2-{[(2S)-3-(ethylamino)-2-hydroxypropyl]oxy}phenyl)-1-methylethyl]amino}-2-oxopyrazin-1(2H)-yl]-5-fluoro-4-methylbenzamide] | 10.2 | –
33 | CNCCCCOc1ccccc1C(C)(C)Nc1nccn(-c2cc(C(=O)NC3CC3)ccc2C)c1=O [Example 204, N-Cyclopropyl-4-methyl-3-[3-[[1-methyl-1-[2-[4-(methylamino)butoxy]phenyl]ethyl]amino]-2-oxo-1(2H)-pyrazinyl]-benzamide] | 9.8 | –
34 | Cc1cccc(C2CCCCN2c2nccn(-c3cc(C(=O)NC4CC4)ccc3C)c2=O)c1 (stereo not shown) [Example 94, N-Cyclopropyl-4-methyl-3-[3-[2-(3-methylphenyl)-1-pipendinyl]-2-oxo-1(2H)-pyrazinyl]-benzamide] | 7.5 | –
